From patent publication US11654126B2, “Method of inhibiting the proliferation of T and/or B lymphocytes via dimethylarginine derivatives and lymphocytes proliferation inhibitor” (GUANGZHOU MEDICAL UNIVERSITY, priority 2019, dated 2023)
“Also recorded” adds a separate entry of the source.

What was measured:
[1] = test system: mouse T cells; test: ROS generation in T cells (CellROX Green, flow cytometry); assay type: cell-based
Procedure: For flow cytometry, T cells were stained with 5 μM CellROX Green Reagent (Life Technologies) for 30 min at 37° C. in the presence or absence of ADMA or SDMA (5 μM), and then washed with 1×PBS once. MitoQ (100 nM) was added with ADMA and SDMA. Cells were resuspended in 300 μl of PBS before the analysis by flow cytometry.
Experimental Groups: ADMA alone, SDMA alone, or ADMA/SDMA (ADMA/SDMA represents the mixture of ADMA and SDMA herein) was used at the final concentration of 1 μM, MitoQ was used either at 10 nM or 100 nM.

[2] = test system: mouse B cells; test: Mouse B cell proliferation assay (splenocytes, IL-4 + anti-IgM, CellTrace Violet); assay type: cell-based; conditions: 5 μM; for B cells proliferation: P<0.01; for number of live B cells / number of divided B cells: after 4 days; for number of live B cells: FIG. 3A; for number of divided B cells: FIG. 3B
Procedure: Spleens were harvested, mechanically disrupted, and resuspend in RPMI 1640 complete medium (10% FBS).
Total splenocytes were then labeled with the proliferation dye CellTrace Violet according to the manufacturer's protocol. Then splenocytes (1×10^5 cells per well in flat bottom 96 well plate) were stimulated with recombinant human IL-4 ([…] and α-mouse IgM (10 μg/ml), and expanded in RPMI1640 medium up to 5 days. Dilution of CellTrace Violet was then evaluated by flow cytometry. (Note; splenocytes contain T cells and monocytes, which will die off during the assay period.)
Experimental group: ADMA or SDMA (5 μM) was added (ADMA and SDMA dissolved in sterile endotoxin-free water, the storage solution concentration is 0.5 mM). Control group: the same volume of sterile endotoxin-free water without ADMA or SDMA was added.

[3] = test system: human T cells; test: Human T cell in vitro proliferation assay (anti-CD3/anti-CD28, CellTrace Violet); assay type: cell-based; conditions: 1 μM; for proliferation of human T cells: P<0.001; for number of divided T cells: human T cells, after 4 days of culture, FIG. 2
Source text: Human T cell isolation and in vitro proliferation experiments: the use of blood from healthy adult blood donors was approved by the Ethics Committee of the Medical Faculty of Guangzhou Medical University, Guangzhou, China. Peripheral blood mononuclear cells (PBMCs) were isolated using Sepmate PBMC isolation tubes following the manufacturer's instructions (StemCell). CD3^+ human T cells were positively isolated by magnetic cell sorting (Miltenyi Biotec, Bergisch-Gladbach, Germany). Purified T cells were labeled with the proliferation dye CellTrace Violet according to the manufacturer's protocol. Then the cells (1×10^5 cells per well in flat bottom 96 well plate) were stimulated in vitro with immobilized anti-CD3 (5 μg/ml) and anti-CD28 (2 μg/ml) antibody (Biolegend, San Diego, USA), and expanded in RPMI1640 medium up to 5 days. Dilution of CellTrace Violet, indicating proliferation, was then evaluated by flow cytometry.

[4] = test system: mouse T cells; test: Mouse T cell proliferation assay (anti-CD3/CD28 beads, CellTrace Violet, flow cytometry); assay type: cell-based; conditions: 1 μM and 5 μM; for survival rate of cells / number of divided T cells: 3 days of stimulation, vs control group; for survival rate of cells: FIG. 1A; for number of divided T cells: FIG. 1B; for proliferation of mouse T cells: P<0.001
Procedure: Total splenic T cells were isolated by StemCell isolation kit: From female 6-8 weeks old C57BL mice, spleens were harvested, mechanically disrupted, and incubated with a biotinylated antibody cocktail consisting of antibodies to B220, CD11b, CD11c, CD16/32, CD19, CD25, CD105, NK1.1, and TCRγδ (StemCell). After a wash step, cells were incubated with streptavidin-coated magnetic nanoparticles (StemCell). CD3^+ cells were then isolated by applying a magnetic field and collecting the unbound cells.
The total T cells obtained in step 1 were labeled with the proliferation indicator dye CellTrace Violet according to the manufacturer's protocol, and then seeded in 96-well round bottom cell culture plates at 2×10^5 per well, next the cells were stimulated with anti-CD3 and anti-CD28 antibody coated magnetic beads (Gibco Dynabeads mouse T-activator CD3/CD28 for T-cell expansion and activation) with the beads to cells ratio of 1:4, and then expanded in RPMI-1640 medium up to 4 days, and dilution of CellTrace Violet was then evaluated by flow cytometry.
Experimental group: different concentrations of ADMA or SDMA were added (ADMA and SDMA dissolved in sterile endotoxin-free water, and the concentration of the storage solution is 0.5 mM); Control group: the same volume of sterile endotoxin-free water was added without ADMA or SDMA.

[5] = test system: activated human T cells; test: Proliferation of activated human T cells (compound added 24 h after anti-CD3/CD28 stimulation); assay type: cell-based; conditions: ADMA 1 μM; for inhibitory effect compared with other substances / number of live cells / T cell proliferation: PD404182 100 nM; for inhibitory effect compared with other substances / number of live cells: rapamycin 50 nM; for number of live cells: 24 h and 48 h after addition, vs control, FIG. 5A, 5B; for T cell proliferation: activated human T cells
Procedure: Human T cells were stimulated with anti-human CD3 and CD28 for 24 hours. […] Flow cytometry was used to analyze the number of live cells and the number of divided cells. The results are shown in FIG. 5A and FIG. 5B, respectively.

[6] = test system: human T cells; test: DMGV human T cell proliferation (anti-CD3/anti-CD28 activation); assay type: cell-based; conditions: 3 days, FIG. 6D
Procedure: (§1) Mouse or human T cells were activated by anti-CD3 and anti-28 antibodies with none, DMGV (10 μM), or DMGV+MitoQ (100 nM) for 3 days and proliferation was measured by flow cytometry. The results are shown in FIG. 6C and FIG. 6D, respectively.

[7] = test system: human peripheral T cells; test: DMGV-induced ROS in human T cells (flow cytometry); assay type: cell-based; conditions: 1 h, FIG. 6B
Procedure: (§2) DMGV was synthesized as described in the literature (for specific preparation procedures, refer to J. Mass Spectrom. 2012, 47, 1594; Anal. Biochem. 2011, 419, 234). Mouse and human T cells were treated with none, or DMGV (10 μM), or DMGV+MitoQ (100 nM) for 1 h and ROS was measured by flow cytometry. The results are shown in FIG. 6A and FIG. 6B, respectively.

[8] = test system: T cells; test: Effect of MitoQ on T cell proliferation in vitro with ADMA/SDMA; assay type: cell-based, mouse; conditions: MitoQ 100 nM + ADMA/SDMA 1 μM vs ADMA/SDMA group; 3 days; FIG. 4D
Procedure: After incubating MitoQ and ADMA/SDMA together with T cells up to 3 days, flow cytometry was used to investigate the effect on the T cells proliferation in vitro.
Experimental groups: Control, ADMA/SDMA (1 μM), and ADMA/SDMA (1 μM)+MitoQ (100 nM).

[9] = test system: mouse splenic T cells; test: DMGV-induced ROS in mouse T cells (flow cytometry); assay type: cell-based; conditions: 1 h, FIG. 6A
Procedure: as §2

[10] = test system: mouse T cells; test: DMGV mouse T cell proliferation (anti-CD3/anti-CD28 activation); assay type: cell-based; conditions: 3 days, FIG. 6C
Procedure: as §1

[11] = test system: SKG mice arthritis; test: Arthritis in beta-glucan injected SKG mice; assay type: in vivo; conditions: SKG mice with score 8 or above; DMGV 750 μg/mouse in the peritoneum up to 50 days; N=7, P=0.0006 (2-way ANOVA); FIG. 7
Procedure: SKG mice (purchased from CLEA Japan, Inc.) develop arthritis because a mutation in the ZAP-70 gene, which causes activation of T cells. SKG mice were injected with beta-glucan (30 mg/mouse, Sigma) to accelerate development of arthritis and the arthritis score was calculated as described in the literature (for specific preparation procedures, refer to Yoshitomi, H, J. Exp Med. 2005). Mice that reached the arthritis score of 8 or above in less than 2 months were selected and treated with DMGV (750 μg/mouse) twice a week up to 50 days.

[12] = ADMA or SDMA alone vs none, 2 hours, FIG. 4A

Compound	ROS [1, 12]	B cells proliferation [2]	number of live B cells [2]	number of divided B cells [2]	proliferation of human T cells [3]	number of divided T cells [3]	survival rate of cells [4]	number of divided T cells [4]	proliferation of mouse T cells [4]	inhibitory effect compared with other substances [5]	number of live cells [5]	T cell proliferation [5]	other results
CN=C(NC)NCCC[C@H](N)C(=O)O [SDMA, symmetric dimethylarginine]	ROS was significantly induced	significantly inhibit B cells proliferation	reduced the number of live	reduced the number of live (FIG. 3A) and divided B cells	inhibit proliferation of human T cells significantly	reduced the number of divided T cells	reduced the survival rate of cells	resulted in the reduction of the number of divided T cells	significantly inhibit the proliferation of mouse T cells				
CN(C)C(N)=NCCC[C@H](N)C(=O)O [ADMA, asymmetric dimethylarginine]	ROS was significantly induced	significantly inhibit B cells proliferation	reduced the number of live	reduced the number of live (FIG. 3A) and divided B cells	inhibit proliferation of human T cells significantly	reduced the number of divided T cells	reduced the survival rate of cells	resulted in the reduction of the number of divided T cells	significantly inhibit the proliferation of mouse T cells	better than PD404182; also recorded: superior to the mTOR inhibitor rapamycin	the number of live cells declined	can inhibit T cell proliferation	number of divided cells of T cells ([5]; vs control or rapamycin group): decreased significantly
COC1=C(OC)C(=O)C(CCCCCCCCCC[P+](c2ccccc2)(c2ccccc2)c2ccccc2)=C(C)C1=O [MitoQ, reference compound]													ROS ([1]; MitoQ (100 nM) with ADMA/SDMA vs ADMA/SDMA alone, FIG. 4B): decreased significantly; effect on inhibition of proliferation by DMGV ([6]; DMGV 10 μM plus MitoQ 100 nM): inhibited by MitoQ; effect on DMGV-induced ROS ([7]; DMGV 10 μM plus MitoQ 100 nM): inhibited by MitoQ; effect on inhibition of T cells proliferation by ADMA/SDMA [8]: significantly prevent the inhibitory effect of ADMA and SDMA on T cells proliferation; effect on DMGV-induced ROS ([9]; DMGV 10 μM plus MitoQ 100 nM): inhibited by MitoQ
N=C1Sc2ccccc2C2=NCCCN12 [PD404182, reference compound]										superior to the mTOR inhibitor rapamycin	the number of live cells declined	can inhibit T cell proliferation	
dimethylguanidino valeric acid [DMGV]													proliferation [10]: inhibited proliferation; proliferation ([6]; DMGV 10 μM): inhibited proliferation; ROS ([7]; DMGV 10 μM): induces ROS; arthritis score [11]: significantly decreased the arthritis score in all mice; ROS ([9]; DMGV 10 μM): induces ROS
